Measurements from ChEMBL document CHEMBL1130837, “8-Aminoquinolines as anticoccidials--II” (Bioorg Med Chem Lett, 1998).

Assays:
Assay type in all cases: functional, organism-based
[1] = species: Gallus gallus; assay: Inhibitory activity against second generation merozoids of Eimeria tenella in chick hepatocyte assay
[2] = species: Gallus gallus; assay: Inhibitory activity against second generation merozoids of Eimeria tenella in chick hepatocyte assay; value given as 0.2-1.0
[3] = species: Gallus gallus; assay: Inhibitory activity against second generation merozoids of Eimeria tenella in chick hepatocyte assay in the absence of inhibitor; value given as 0.004-0.0008
[4] = species: Gallus gallus; assay: Inhibitory activity against second generation merozoids of Eimeria tenella in chick hepatocyte assay in the presence of iproniazid; value given as 0.004-0.0008
[5] = species: Gallus gallus; assay: Inhibitory activity against second generation merozoids of Eimeria tenella in chick hepatocyte assay in the presence of Tranylcypromine; value given as 0.004-0.0008
[6] = species: Gallus gallus; assay: Inhibitory activity against second generation merozoids of Eimeria tenella in chick hepatocyte assay in the presence of Ketoconazole at 5 ug/ml; value given as 0.2-1.0
[7] = species: Gallus gallus; assay: Inhibitory activity against second generation merozoids of Eimeria tenella in chick hepatocyte assay in the presence of alpha-naphthoflavone at 5 ug/ml; value given as 0.2-1.0
[8] = species: Gallus gallus; assay: Inhibitory activity against second generation merozoids of Eimeria tenella in chick hepatocyte assay in the presence of iproniazid; Value given as 1-5
[9] = species: Gallus gallus; assay: Inhibitory activity against second generation merozoids of Eimeria tenella in chick hepatocyte assay in the presence of SKF-525A at 5 ug/ml; value given as 0.2-1.0
[10] = species: Gallus gallus; assay: Inhibitory activity against second generation merozoids of Eimeria tenella in chick hepatocyte assay in the absence of inhibitor; value given as 0.2-1.0
[11] = species: Gallus gallus; assay: Inhibitory activity against second generation merozoids of Eimeria tenella in chick hepatocyte assay in the presence of Tranylcypromine; Value given as 1-5
[12] = species: Gallus gallus; assay: Inhibitory activity against second generation merozoids of Eimeria tenella in chick hepatocyte assay in the absence of inhibitor; Value given as 0.08-0.016
[13] = species: Gallus gallus; assay: Inhibitory activity against second generation merozoids of Eimeria tenella in chick hepatocyte assay in the presence of iproniazid; Value given as 0.08-0.016
[14] = species: Gallus gallus; assay: Inhibitory activity against second generation merozoids of Eimeria tenella in chick hepatocyte assay in the presence of Tranylcypromine; Value given as 0.08-0.016

Structure (SMILES) | IC50 [1] [p.p.m.] | IC50 [2] [p.p.m.] | other results
COc1cc(NCCCC/C=N/OCc2ccc([N+](=O)[O-])cc2)c2ncccc2c1 | > 1 | – | –
COc1cc(NCCCCC(=O)O)c2ncccc2c1 | > 1 | – | –
CO/N=C/CCCCNc1cc(OC)cc2cccnc12 | – | 0.2 | –
COc1cc(NCCCC/C=N/O)c2ncccc2c1 | > 1 | – | –
COc1cc(NCCCC2(C)OCCO2)c2ncccc2c1 | > 1 | – | –
COc1cc(NCCCC2(c3ccc(F)cc3)OCCO2)c2ncccc2c1 | – | 0.2 | –
COc1cc(NCCCC/C=N/Oc2ccccc2)c2ncccc2c1 | – | 0.2 | –
COc1cc(NCCCCC2OCCO2)c2ncccc2c1 | – | 0.2 | –
COc1cc(NCCCC2OCCO2)c2ncccc2c1 | > 1 | – | –
COc1cc(NCCCC/C=N/OCC(=O)O)c2ncccc2c1 | > 1 | – | –
COc1cc(NCCCC/C=N/OC(C)(C)C)c2ncccc2c1 | – | 0.2 | –
COc1cc(NCCCCCO)c2ncccc2c1 | > 1 | – | –
C=CCO/N=C/CCCCNc1cc(OC)cc2cccnc12 | – | 0.2 | –
COc1cc(NCCCC/C=N/OC(=O)c2ccccc2)c2ncccc2c1 | – | 0.2 | –
CCO/N=C/CCCCNc1cc(OC)cc2cccnc12 | – | 0.2 | –
CCCCCCCCCCOc1cc2c(O)c(C(=O)OCC)cnc2cc1OCC [DECOQUINATE] | – | – | IC50 [3]: 0.0008 p.p.m.; IC50 [4]: 0.0008 p.p.m.; IC50 [5]: 0.0008 p.p.m.
N#CC(c1ccc(Cl)cc1)c1c(Cl)cc(-n2ncc(=O)[nH]c2=O)cc1Cl (stereo not given) [DICLAZURIL] | – | – | IC50 [3]: 0.0008 p.p.m.; IC50 [4]: 0.0008 p.p.m.; IC50 [5]: 0.0008 p.p.m.
COc1cc(NCCCCCNC(C)C)c2ncccc2c1 [PENTAQUINE] | – | – | IC50 [6]: 0.2 p.p.m.; IC50 [7]: 0.2 p.p.m.; IC50 [8]: 1 p.p.m.; IC50 [9]: 0.2 p.p.m.; IC50 [10]: 0.2 p.p.m.; IC50 [11]: 1 p.p.m.
CC[C@@H](C(=O)[C@@H](C)[C@@H](O)[C@H](C)[C@@H]1O[C@@H]([C@@H](CC)C(=O)O)CC[C@@H]1C)[C@H]1O[C@]2(C=C[C@@H](O)[C@]3(CC[C@@](C)([C@H]4CC[C@](O)(CC)[C@H](C)O4)O3)O2)[C@H](C)C[C@@H]1C [SALINOMYCIN] | – | – | IC50 [12]: 0.016 p.p.m.; IC50 [13]: 0.016 p.p.m.; IC50 [14]: 0.016 p.p.m.
